Results from patent US20100130477A1, “Spirocyclobutyl Piperidine Derivatives” (ASTRAZENECA AB, priority 2008, published 2010).

Molecular target: T1, human Histamine H3 receptor (hH3R) (Homo sapiens, UniProt Q9Y5N1)
T1 construct: expressed in transfected cells; host or cells: CHO cells (Chinese Hamster Ovary); membranes
Experiment: GTPγS Binding Assay (antagonist activity, [35S]GTPγS, (R)-α-methyl histamine 30 nM)
Type: biochemical
Conditions: membranes from CHO cells expressing hH3R, 90 minutes at room temperature
Protocol: Guanosine 5′-O-(3-[^35S]thio)triphosphate [GTPγS] Binding Assay
A GTPγS binding assay can be used to investigate antagonist properties of compounds in CHO cells (Chinese Hamster Ovary) transfected with human Histamine H3 receptor (hH3R). Membranes from CHO cells expressing hH3R (10 μg/well) are diluted in GTPγS assay buffer (20 mM Hepes, 10 mM MgCl2, 100 mM NaCl, pH 7.4) and preincubated with saponine (3 μg/ml), GDP (10 μM) and PVT-WGA SPA beads (125 μg/well) (Amersham) for 30 minutes. To determine antagonist activity, (R)-α-methyl histamine (30 nM) is added in 96 well SPA plate with [^35S]GTPγS (0.2 nM) and various concentration of H3R antagonists. The GTPγS binding assay is started with addition of the mixture membrane/saponine/GDP and incubated for 90 minutes at room temperature. The amount of bound [^35S]GTPγS is determined by using the MicroBeta Trilux counter (PerkinElmer). The percentage of [^35S]GTPγS bound in each sample is calculated as a percentage of that bound control sample incubated in absence of H3 antagonist. Duplicate determinations are obtained for each concentration, and the data are analyzed using ExcelFit4 to obtain the IC50.

T1 sequence (Q9Y5N1 whole entry): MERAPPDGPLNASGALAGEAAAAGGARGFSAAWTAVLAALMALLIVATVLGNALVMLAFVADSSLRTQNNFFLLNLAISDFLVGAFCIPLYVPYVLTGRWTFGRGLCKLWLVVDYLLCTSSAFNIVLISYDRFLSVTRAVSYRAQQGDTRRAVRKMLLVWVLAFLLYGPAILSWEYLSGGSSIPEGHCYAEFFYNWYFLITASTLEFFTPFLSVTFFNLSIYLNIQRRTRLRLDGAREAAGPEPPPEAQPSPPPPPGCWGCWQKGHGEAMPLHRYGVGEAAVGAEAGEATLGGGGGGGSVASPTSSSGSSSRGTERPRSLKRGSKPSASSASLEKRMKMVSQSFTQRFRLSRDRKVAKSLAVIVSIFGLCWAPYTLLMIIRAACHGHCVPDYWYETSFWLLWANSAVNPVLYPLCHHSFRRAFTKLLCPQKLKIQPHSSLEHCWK

| IC50 | SMILES |
| --- | --- |
| 80.4 nM | O=C(c1ncc(F)cc1F)N1CCC2(CC1)CC(C(=O)N1CCN(C3CCC3)CC1)C2 [Example 16, (4-cyclobutylpiperazin-1-yl)(7-(3,5-difluoropicolinoyl)-7-azaspiro[3.5]nonan-2-yl)methanone] |
| 6.06 nM | Cc1cnccc1C(=O)N1CCC2(CC1)CC(C(=O)N1CCN(C3CCC3)CC1)C2 [Example 23, (4-cyclobutylpiperazin-1-yl)(7-(3-methylisonicotinoyl)-7-azaspiro[3.5]nonan-2-yl)methanone] |
| 24.5 nM | Cc1cccnc1C(=O)N1CCC2(CC1)CC(C(=O)N1CCN(C3CCC3)CC1)C2 [Example 19, (4-cyclobutylpiperazin-1-yl)(7-(3-methylpicolinoyl)-7-azaspiro[3.5]nonan-2-yl)methanone] |
| 18.2 nM | O=C(c1cccnc1)N1CCC2(CC1)CC(C(=O)N1CCN(C3CCC3)CC1)C2 [Example 21, (4-cyclobutylpiperazin-1-yl)(7-nicotinoyl-7-azaspiro[3.5]nonan-2-yl)methanone] |
| 35 nM | O=C(c1cc(Cl)ccn1)N1CCC2(CC1)CC(C(=O)N1CCN(C3CCC3)CC1)C2 [Example 17, (7-(4-chloropicolinoyl)-7-azaspiro[3.5]nonan-2-yl)(4-cyclobutylpiperazin-1-yl)methanone] |
| 48 nM | O=C(c1ccccn1)N1CCC2(CC1)CC(C(=O)N1CCN(C3CCC3)CC1)C2 [Example 20, (4-cyclobutylpiperazin-1-yl)(7-picolinoyl-7-azaspiro[3.5]nonan-2-yl)methanone] |
| 12.6 nM | O=C(c1ccncc1)N1CCC2(CC1)CC(C(=O)N1CCN(C3CCC3)CC1)C2 [Example 22, (4-cyclobutylpiperazin-1-yl)(7-isonicotinoyl-7-azaspiro[3.5]nonan-2-yl)methanone] |
| 12.5 nM | Cc1cncc(C(=O)N2CCC3(CC2)CC(C(=O)N2CCN(C4CCC4)CC2)C3)c1 [Example 25, (4-cyclobutylpiperazin-1-yl)(7-(5-methylnicotinoyl)-7-azaspiro[3.5]nonan-2-yl)methanone] |
| 8.45 nM | Cc1cnccc1C(=O)N1CCC2(CC1)CC(C(=O)N1CCCN(C3CCC3)CC1)C2 [Example 44, (4-cyclobutyl-1,4-diazepan-1-yl)(7-(3-methylisonicotinoyl)-7-azaspiro[3.5]nonan-2-yl)methanone] |
| 24.5 nM | N#Cc1cccc(C(=O)N2CCC3(CC2)CC(C(=O)N2CCN(C4CCC4)CC2)C3)c1 [Example 31, 3-(2-(4-cyclobutylpiperazine-1-carbonyl)-7-azaspiro[3.5]nonane-7-carbonyl)benzonitrile] |
| 20.8 nM | O=C(c1cncc(Cl)c1)N1CCC2(CC1)CC(C(=O)N1CCN(C3CCC3)CC1)C2 [Example 9, (7-(5-chloronicotinoyl)-7-azaspiro[3.5]nonan-2-yl)(4-cyclobutylpiperazin-1-yl)methanone] |
| 8.27 nM | O=C(c1cccnc1)N1CCC2(CC1)CC(C(=O)N1CCCN(C3CCC3)CC1)C2 [Example 47, (4-cyclobutyl-1,4-diazepan-1-yl)(7-nicotinoyl-7-azaspiro[3.5]nonan-2-yl)methanone] |
| 22.9 nM | CCc1cnccc1C(=O)N1CCC2(CC1)CC(C(=O)N1CCN(C3CCC3)CC1)C2 [Example 8, (4-cyclobutylpiperazin-1-yl)(7-(3-ethylisonicotinoyl)-7-azaspiro[3.5]nonan-2-yl)methanone] |

More lines, now with the values behind:

| SMILES | IC50 |
| --- | --- |
| O=C(C1CCCCC1)N1CCC2(CC1)CC(C(=O)N1CCN(C3CCC3)CC1)C2 [Example 7, (4-cyclobutylpiperazin-1-yl)(7-(cyclohexanecarbonyl)-7-azaspiro[3.5]nonan-2-yl)methanone] | 52.9 nM |
| O=C(c1ccncc1)N1CCC2(CC1)CC(C(=O)N1CCCN(C3CCC3)CC1)C2 [Example 45, (4-cyclobutyl-1,4-diazepan-1-yl)(7-isonicotinoyl-7-azaspiro[3.5]nonan-2-yl)methanone] | 7.61 nM |
| CC(C)N1CCN(C(=O)C2CC3(CCN(C(=O)N(C)C)CC3)C2)CC1 [Example 37, 2-(4-isopropylpiperazine-1-carbonyl)-N,N-dimethyl-7-azaspiro[3.5]nonane-7-carboxamide] | 114 nM |
| CC(C)N1CCN(C(=O)C2CC3(CCN(S(C)(=O)=O)CC3)C2)C[C@H]1C [Example 60, ((R)-4-isopropyl-3-methylpiperazin-1-yl)(7-(methylsulfonyl)-7-azaspiro[3.5]nonan-2-yl)methanone] | 177 nM |
| O=C(C1CC2(CCN(c3ccncc3)CC2)C1)N1CCN(C2CCC2)CC1 [Example 66, (4-cyclobutylpiperazin-1-yl)(7-(pyridin-4-yl)-7-azaspiro[3.5]nonan-2-yl)methanone] | 10.1 nM |
| O=C(C1CC2(CCN(c3cnccn3)CC2)C1)N1CCN(C2CCC2)CC1 [Example 65, (4-cyclobutylpiperazin-1-yl)(7-(pyrazin-2-yl)-7-azaspiro[3.5]nonan-2-yl)methanone] | 51.7 nM |
| N#Cc1ccc(C(=O)N2CCC3(CC2)CC(C(=O)N2CCCN(C4CCC4)CC2)C3)cc1 [Example 49, 4-(2-(4-cyclobutyl-1,4-diazepane-1-carbonyl)-7-azaspiro[3.5]nonane-7-carbonyl)benzonitrile] | 5.28 nM |
| CC(C)S(=O)(=O)N1CCC2(CC1)CC(C(=O)N1CCN(C3CCC3)CC1)C2 [Example 4, (4-cyclobutylpiperazin-1-yl)(7-(isopropylsulfonyl)-7-azaspiro[3.5]nonan-2-yl)methanone] | 15.4 nM |
| N#Cc1ccccc1C(=O)N1CCC2(CC1)CC(C(=O)N1CCCN(C3CCC3)CC1)C2 [Example 51, 2-(2-(4-cyclobutyl-1,4-diazepane-1-carbonyl)-7-azaspiro[3.5]nonane-7-carbonyl)benzonitrile] | 5.02 nM |
| CC(C)N1CCN(C(=O)C2CC3(CCN(S(C)(=O)=O)CC3)C2)CC1 [Example 33, (4-isopropylpiperazin-1-yl)(7-(methylsulfonyl)-7-azaspiro[3.5]nonan-2-yl)methanone] | 33.9 nM |
| O=C(C1CC2(CCN(S(=O)(=O)c3ccccc3)CC2)C1)N1CCN(C2CCC2)CC1 [Example 6, (4-cyclobutylpiperazin-1-yl)(7-(phenylsulfonyl)-7-azaspiro[3.5]nonan-2-yl)methanone] | 6.56 nM |
| CS(=O)(=O)N1CCC2(CC1)CC(C(=O)N1CCN(C3CCC3)CC1)C2 [Example 5, (4-cyclobutylpiperazin-1-yl)(7-(methylsulfonyl)-7-azaspiro[3.5]nonan-2-yl)methanone] | 7.29 nM |
| O=C(C1CC2(CCN(S(=O)(=O)c3cccc(F)c3)CC2)C1)N1CCCN(C2CCC2)CC1 [Example 39, (4-cyclobutyl-1,4-diazepan-1-yl)(7-(3-fluorophenylsulfonyl)-7-azaspiro[3.5]nonan-2-yl)methanone] | 9.97 nM |
| CC(C)N1CCCN(C(=O)C2CC3(CCN(C(=O)c4ccncc4)CC3)C2)CC1 [Example 54, (7-isonicotinoyl-7-azaspiro[3.5]nonan-2-yl)(4-isopropyl-1,4-diazepan-1-yl)methanone] | 161 nM |
| C[C@H]1CN(C(=O)C2CC3(CCN(S(C)(=O)=O)CC3)C2)CCN1C1CCC1 [Example 59, ((S)-4-cyclobutyl-3-methylpiperazin-1-yl)(7-(methylsulfonyl)-7-azaspiro[3.5]nonan-2-yl)methanone] | 368 nM |
| CC(C)N1CCN(C(=O)C2CC3(CCN(S(C)(=O)=O)CC3)C2)C[C@@H]1C [Example 61, ((S)-4-isopropyl-3-methylpiperazin-1-yl)(7-(methylsulfonyl)-7-azaspiro[3.5]nonan-2-yl)methanone] | 179 nM |
| O=C(c1ccccc1)N1CCC2(CC1)CC(C(=O)N1CCCN(C3CCC3)CC1)C2 [Example 48, (7-benzoyl-7-azaspiro[3.5]nonan-2-yl)(4-cyclobutyl-1,4-diazepan-1-yl)methanone] | 12.7 nM |
| O=C(C1CC2(CCN(S(=O)(=O)c3ccccc3F)CC2)C1)N1CCCN(C2CCC2)CC1 [Example 40, (4-cyclobutyl-1,4-diazepan-1-yl)(7-(2-fluorophenylsulfonyl)-7-azaspiro[3.5]nonan-2-yl)methanone] | 6.22 nM |
| O=C(C1CC2(CCN(c3ccccc3)CC2)C1)N1CCN(C2CCC2)CC1 [Example 3, (4-cyclobutylpiperazin-1-yl)(7-phenyl-7-azaspiro[3.5]nonan-2-yl)methanone] | 72.9 nM |
| CS(=O)(=O)N1CCC2(CC1)CC(C(=O)N1CCN(C3CCCC3)CC1)C2 [Example 58, (4-cyclopentylpiperazin-1-yl)(7-(methylsulfonyl)-7-azaspiro[3.5]nonan-2-yl)methanone] | 63 nM |
| CC(C)N1CCCN(C(=O)C2CC3(CCN(C(=O)c4cccnc4)CC3)C2)CC1 [Example 55, (4-isopropyl-1,4-diazepan-1-yl)(7-nicotinoyl-7-azaspiro[3.5]nonan-2-yl)methanone] | 115 nM |
| O=C(Nc1ccccc1)N1CCC2(CC1)CC(C(=O)N1CCN(C3CCC3)CC1)C2 [Example 32, 2-(4-cyclobutylpiperazine-1-carbonyl)-N-phenyl-7-azaspiro[3.5]nonane-7-carboxamide] | 47.7 nM |
| O=C(C1CC2(CCN(S(=O)(=O)c3ccc(F)cc3)CC2)C1)N1CCCN(C2CCC2)CC1 [Example 38, (4-cyclobutyl-1,4-diazepan-1-yl)(7-(4-fluorophenylsulfonyl)-7-azaspiro[3.5]nonan-2-yl)methanone] | 8.9 nM |
